Laboratory results published in US10766869B2, “Triazoles for the treatment of demyelinating dieases” (Vertex Pharmaceuticals Incorporated, priority 2015, dated 2020).

Test system: primary rat mixed cortical cells
Assay: In vitro myelination assay (MBP positive myelin strands, fold myelin pixels above background)
Format: cell-based
Conditions: Rattus norvegicus, relative to baseline of no added compound; for fold induction at 1 µM: 1.0 μM compound, read-out: Fold myelin pixels above background, 1.0 μM; for fold induction at 10 µM: 10.0 μM compound, read-out: Fold myelin pixels above background, 10.0 μM
Method in brief: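 P1 rat cortical cells (neurons, OPCs, oligodendrocytes, astrocytes, microglia) were cultured 14 days at 37 °C with compound, with half-medium changes containing 1× compound on days 6 and 10. Fixed cells were immunostained for MBP and imaged at 10×. Total MBP myelin pixels per well were expressed as fold above no-compound baseline at 1.0 μM and 10.0 μM.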

SMILES | fold induction at 1 µM | fold induction at 10 µM
Fc1cc(F)cc(-n2cnc(Nc3cc(C4=CCOC4)cc(N4CCOCC4)c3)n2)c1 [Compound 298, 1-(3,5-difluorophenyl)-N-[3-(2,5-dihydrofuran-3-yl)-5-morpholino-phenyl]-1,2,4-triazol-3-amine] | 1000 to 10000 | 100 to 1000
COCC1CCN(c2cc(C)cc(Nc3ncn(-c4ccc(F)c(F)c4)n3)c2)CC1 [Compound 299, 1-(3,4-difluorophenyl)-N-[3-[4-(methoxymethyl)-1-piperidyl]-5-methyl-phenyl]-1,2,4-triazol-3-amine] | 100 to 1000 | 10 to 100
CC(=O)N1CCCC(c2cc(C)cc(Nc3ncn(-c4cnccn4)n3)c2)C1 (stereo not shown) [Compound 300, 1-[3-[3-methyl-5-[(1-pyrazin-2-yl-1,2,4-triazol-3-yl)amino]phenyl]-1-piperidyl]ethanone] | 100 to 1000 | ≤ 1
Cc1cc(Nc2ncn(-c3ccc(F)c(F)c3)n2)cc(C2CN(C3COC3)C2)c1 [Compound 301, 1-(3,4-difluorophenyl)-N-[3-methyl-5-[1-(oxetan-3-yl)azetidin-3-yl]phenyl]-1,2,4-triazol-3-amine] | 1000 to 10000 | 100 to 1000
Cc1cc(-n2cnc(Nc3cc(C4CC4)cc(N4CCN(C5COC5)CC4)c3)n2)ncn1 [Compound 302, N-[3-cyclopropyl-5-[4-(oxetan-3-yl)piperazin-1-yl]phenyl]-1-(6-methylpyrimidin-4-yl)-1,2,4-triazol-3-amine] | 1000 to 10000 | 1000 to 10000
CCc1cc(Nc2ncn(-c3ccc(OC(F)(F)F)cc3)n2)cc(N2CCN(C3COC3)CC2)c1 [Compound 303, N-[3-ethyl-5-[4-(oxetan-3-yl)piperazin-1-yl]phenyl]-1-[4-(trifluoromethoxy)phenyl]-1,2,4-triazol-3-amine] | 1 to 10 | 1 to 10
Cc1cc(Nc2ncn(-c3cc(F)cc(F)c3)n2)cc(O[C@H]2CCN(C3COC3)C2)c1 [Compound 304, 1-(3,5-difluorophenyl)-N-[3-methyl-5-[(3S)-1-(oxetan-3-yl)pyrrolidin-3-yl]oxy-phenyl]-1,2,4-triazol-3-amine] | 100 to 1000 | ≤ 1
c1ccc(-n2cnc(Nc3cc(C4CC4)cc(N4CCOCC4)c3)n2)cc1 [Compound 305, N-(3-cyclopropyl-5-morpholino-phenyl)-1-phenyl-1,2,4-triazol-3-amine] | 100 to 1000 | ≤ 1
Cc1cc(Nc2ncn(-c3ccccc3)n2)cc(N2CC(C)OC(C)C2)c1 (stereo not shown) [Compound 306, N-[3-(2,6-dimethylmorpholin-4-yl)-5-methyl-phenyl]-1-phenyl-1,2,4-triazol-3-amine] | ≤ 1 | ≤ 1
Cc1cc(N2CCOCC2)cc(Nc2ncn(-c3ccccn3)n2)c1F [Compound 307, N-(2-fluoro-3-methyl-5-morpholino-phenyl)-1-(2-pyridyl)-1,2,4-triazol-3-amine] | 1 to 10 | 10 to 100
Cc1cc(Nc2ncn(-c3ccccc3)n2)cc(C2CCNCC2)c1 [Compound 308, N-[3-methyl-5-(4-piperidyl)phenyl]-1-phenyl-1,2,4-triazol-3-amine] | 1000 to 10000 | ≤ 1
Cc1cc(Nc2ncn(-c3ccccc3)n2)cc(NC2CCN(C3COC3)C2)c1 (stereo not shown) [Compound 309, 5-methyl-N1-[1-(oxetan-3-yl)pyrrolidin-3-yl]-N3-(1-phenyl-1,2,4-triazol-3-yl)benzene-1,3-diamine] | 1000 to 10000 | ≤ 1
COc1cc(Nc2ncn(-c3cc(F)cc(F)c3)n2)cc(N2CCN(C3COC3)CC2)c1 [Compound 310, 1-(3,5-difluorophenyl)-N-[3-methoxy-5-[4-(oxetan-3-yl)piperazin-1-yl]phenyl]-1,2,4-triazol-3-amine] | 1000 to 10000 | 100 to 1000
Cc1cc(Nc2ncn(-c3cc(F)cc(F)c3)n2)cc(N2CCN(C(C)(CO)CO)CC2)c1 [Compound 311, 2-[4-[3-[[1-(3,5-difluorophenyl)-1,2,4-triazol-3-yl]amino]-5-methyl-phenyl]piperazin-1-yl]-2-methyl-propane-1,3-diol] | ≤ 1 | ≤ 1
Cc1cc(Nc2ncn(-c3cc(C)nc(C)n3)n2)cc(N2CCN(C3COC3)CC2)c1 [Compound 312, 1-(2,6-dimethylpyrimidin-4-yl)-N-[3-methyl-5-[4-(oxetan-3-yl)piperazin-1-yl]phenyl]-1,2,4-triazol-3-amine] | 1 to 10 | 1 to 10
Fc1cc(F)cc(-n2cnc(Nc3cc(C4COC4)cc(N4CCN(C5COC5)CC4)c3)n2)c1 [Compound 313, 1-(3,5-difluorophenyl)-N-[3-(oxetan-3-yl)-5-[4-(oxetan-3-yl)piperazin-1-yl]phenyl]-1,2,4-triazol-3-amine] | 1 to 10 | 100 to 1000

SMILES | fold induction at 1 µM | fold induction at 10 µM
CCc1cc(Nc2ncn(-c3ccnc(OC)n3)n2)cc(N2CCN(C3COC3)CC2)c1 [Compound 314, N-[3-ethyl-5-[4-(oxetan-3-yl)piperazin-1-yl]phenyl]-1-(2-methoxypyrimidin-4-yl)-1,2,4-triazol-3-amine] | 10 to 100 | 10 to 100
C1=C(c2cc(Nc3ncn(-c4ccccc4)n3)cc(C3=CCOCC3)c2)CCOC1 [Compound 315, N-[3,5-bis(3,6-dihydro-2H-pyran-4-yl)phenyl]-1-phenyl-1,2,4-triazol-3-amine] | 100 to 1000 | 100 to 1000
Cc1cc(Nc2ncn(-c3ccccc3)n2)cc(C2CCCNC2)c1 (stereo not shown) [Compound 316, N-[3-methyl-5-(3-piperidyl)phenyl]-1-phenyl-1,2,4-triazol-3-amine] | 100 to 1000 | ≤ 1
Cc1cc(Nc2ncn(-c3ccc(F)c(F)c3)n2)cc(N2CCN(C)CC2)c1 [Compound 317, 1-(3,4-difluorophenyl)-N-[3-methyl-5-(4-methylpiperazin-1-yl)phenyl]-1,2,4-triazol-3-amine] | 100 to 1000 | 10 to 100
Cc1cc(Nc2ncn(-c3cc(F)cc(N4CC[C@@H](C(C)(C)O)C4)c3)n2)cc(N2CCN(C3COC3)CC2)c1 [Compound 318, 2-[(3R)-1-[3-fluoro-5-[3-[3-methyl-5-[4-(oxetan-3-yl)piperazin-1-yl]anilino]-1,2,4-triazol-1-yl]phenyl]pyrrolidin-3-yl]propan-2-ol] | 10 to 100 | ≤ 1
c1ccc(-n2cnc(Nc3cc(N4CCOCC4)nc(N4CCOCC4)c3)n2)cc1 [Compound 319, 2,6-dimorpholino-N-(1-phenyl-1,2,4-triazol-3-yl)pyridin-4-amine] | 1 to 10 | ≤ 1
Cc1cc(Nc2ncn(-c3cncc(F)c3)n2)cc(N2CCCC2)c1 [Compound 320, 1-(5-fluoro-3-pyridyl)-N-(3-methyl-5-pyrrolidin-1-yl-phenyl)-1,2,4-triazol-3-amine] | 10 to 100 | 100 to 1000
Fc1cc(Nc2ncn(-c3ccc(F)cc3F)n2)cc(N2CCOCC2)c1 [Compound 321, 1-(2,4-difluorophenyl)-N-(3-fluoro-5-morpholino-phenyl)-1,2,4-triazol-3-amine] | 1 to 10 | ≤ 1
CCc1cc(Nc2ncn(-c3ccc(C(F)(F)F)cc3)n2)cc(N2CCN(C3COC3)CC2)c1 [Compound 322, N-[3-ethyl-5-[4-(oxetan-3-yl)piperazin-1-yl]phenyl]-1-[4-(trifluoromethyl)phenyl]-1,2,4-triazol-3-amine] | 1 to 10 | 1 to 10
Cc1cc(Nc2ncn(-c3cc(C)cc(F)c3)n2)cc(N2CCN(C3COC3)CC2)c1 [Compound 323, 1-(3-fluoro-5-methyl-phenyl)-N-[3-methyl-5-[4-(oxetan-3-yl)piperazin-1-yl]phenyl]-1,2,4-triazol-3-amine] | 1000 to 10000 | 100 to 1000
Cc1cc(Nc2ncn(-c3cc(F)cc(F)c3)n2)cc(N2CCC(N3CCOCC3)CC2)c1 [Compound 324, 1-(3,5-difluorophenyl)-N-[3-methyl-5-(4-morpholino-1-piperidyl)phenyl]-1,2,4-triazol-3-amine] | 1 to 10 | 10 to 100
COCC1CN(c2cc(C)cc(Nc3ncn(-c4cc(F)cc(F)c4)n3)c2)CCO1 (stereo not shown) [Compound 325, 1-(3,5-difluorophenyl)-N-[3-[2-(methoxymethyl)morpholin-4-yl]-5-methyl-phenyl]-1,2,4-triazol-3-amine] | 10 to 100 | 10 to 100
Cc1cc(Nc2ncn(-c3ccccc3)n2)cc(N2CCN(C(C)C)CC2)c1 [Compound 326, N-[3-(4-isopropylpiperazin-1-yl)-5-methyl-phenyl]-1-phenyl-1,2,4-triazol-3-amine] | 1000 to 10000 | ≤ 1
Fc1ccc(-n2cnc(Nc3cc(C4CC4)nc(N4CCCCC4)c3)n2)cc1F [Compound 327, 2-cyclopropyl-N-[1-(3,4-difluorophenyl)-1,2,4-triazol-3-yl]-6-(1-piperidyl)pyridin-4-amine] | 100 to 1000 | 100 to 1000
Cc1cc(Nc2ncn(-c3cc(F)cc(F)c3)n2)cc(C2CCCN(C)C2)c1 (stereo not shown) [Compound 328, 1-(3,5-difluorophenyl)-N-[3-methyl-5-(1-methyl-3-piperidyl)phenyl]-1,2,4-triazol-3-amine] | 100 to 1000 | 100 to 1000
Cc1cc(Nc2ncn(-c3cc(F)cc(F)n3)n2)cc(N2CCN(C3COC3)CC2)c1 [Compound 329, 1-(4,6-difluoro-2-pyridyl)-N-[3-methyl-5-[4-(oxetan-3-yl)piperazin-1-yl]phenyl]-1,2,4-triazol-3-amine] | 1 to 10 | 10 to 100
